Tests used:
[1] = system: MDA-MB-231; experiment: MTT antiproliferative assay, 48 h, MDA-MB-231; format: cell-based, human; conditions: 48-hour exposition, read-out: Cytotoxicity, IC50, μM MDA-MB-231
Protocol: (§1) Anticancer activity of compounds of invention, PDI A3-inhibitors has been tested in vitro in classical antiproliferative assay in various cancer cells lines. Monolayer tumor cell lines MDA-MB-231 (human mammary breast adenocarcinoma), MCF-7 (human breast adenocarcinoma, estrogen-positive), HT-1080 (human fibrosarcoma) and Caco-2 (human colon adenocarcinoma) were cultured in standard medium DMEM (Dulbecco's modified Eagle's medium) (“Sigma”) supplemented with 10% foetal bovine serum (“Sigma”). About 2000-4000 cells per well (depending on line nature) were placed in 96-well plates and after 24 h compounds were added to the wells. Untreated cells were used as a control. The plates were incubated for 48 h, 37° C., 5% CO2. The number of surviving cells was determined using 3-(4,5-dimethylthiazol-2-yl)-2,5-diphenyltetrazolinium bromide (MTT). MTT-test: after incubating culture medium was removed and 200 μL fresh medium with 20 μL MTT (2 mg/mL in HBSS) was added in each well of the plate. After incubation (3 hr., 37° C., 5% CO2), the medium with MTT was removed and 200 μL DMSO were added at once to each sample. The samples were tested at 540 nm on Thermo Scientific Multiskan EX microplate photometer. The half-maximal inhibitory concentration (IC50) of each compound was calculated using Graph Pad Prism® 3.0.

[2] = system: MCF-7; experiment: MTT antiproliferative assay, 48 h, MCF-7; format: cell-based, human; conditions: 48-hour exposition, read-out: Cytotoxicity, IC50, μM MCF-7
Protocol: as §1

[3] = system: CaCo-2; experiment: MTT antiproliferative assay, 48 h, Caco-2; format: cell-based, human; conditions: 48-hour exposition, read-out: Cytotoxicity, IC50, μM CaCo-2
Protocol: as §1

[4] = target: T1, PDI A3 (Homo sapiens, UniProt P30101); experiment: PDI A3 inhibition, insulin turbidimetric assay; format: biochemical; conditions: 10 ug/ml PDI A3, incubated 60 min at 37° C., turbidity at 650 nm; read-out: Inhibition of PDI A3 (EC 50)
T1 construct: purchased Mybiosource; host or cells: E. coli
T1 sequence (P30101 25-505): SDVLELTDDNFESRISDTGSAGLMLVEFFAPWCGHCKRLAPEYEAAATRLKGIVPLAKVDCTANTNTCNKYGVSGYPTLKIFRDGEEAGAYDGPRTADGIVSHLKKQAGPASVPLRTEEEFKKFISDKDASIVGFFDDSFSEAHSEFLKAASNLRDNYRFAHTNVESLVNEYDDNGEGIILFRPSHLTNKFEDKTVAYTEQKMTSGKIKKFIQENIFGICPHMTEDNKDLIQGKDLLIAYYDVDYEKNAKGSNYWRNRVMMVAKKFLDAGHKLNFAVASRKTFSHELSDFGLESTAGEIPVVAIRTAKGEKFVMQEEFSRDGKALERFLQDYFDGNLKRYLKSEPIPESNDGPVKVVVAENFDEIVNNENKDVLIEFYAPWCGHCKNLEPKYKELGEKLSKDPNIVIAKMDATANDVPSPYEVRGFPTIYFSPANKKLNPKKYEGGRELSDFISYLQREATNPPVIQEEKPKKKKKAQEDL
Protocol: The inhibitory effects compounds of invention on activity of PDIA3 was assess based on the insulin turbidimetric assay. Enzymatic activity of PDIA3 was confirmed by measuring the turbidity increase at 650 nm due to insulin reduction. The assay mixture was prepared by addition 10 ug/ml PDI A3 (E. coli recombinant protein; Mybiosource), […] phosphate buffer (pH7.6), 1 mM EDTA, 0.087 mM DTT and with or without tested compound and was incubated for 60 min, at 37° C. Reaction was started by addition of insulin and DTT. Final concentration of insulin and DTT in assay mixture were 0.15 mMv and 0.174 mMv, respectively. Turbidity was detected at 650 nm against reference samples without PDJs. The measurements were performed at 650 nm using 120-s recordings.

[5] = system: HT-1080; experiment: MTT antiproliferative assay, 48 h, HT-1080; format: cell-based, human; conditions: 48-hour exposition, read-out: Cytotoxicity, IC50, μM HT-1080
Protocol: as §1

EC50 [4]: 190 µM
Substance: Methyl 1-(4-propylphenyl)sulfonylaziridine-2-carboxylate [Compound C-3304]
IC50 [1]: 13 ± 1 µM
IC50 [2]: 49 ± 1 µM
IC50 [3]: 10 ± 1 µM
IC50 [5]: 17 ± 3 µM
